Source: US6914045B2, “Glycopeptide antibiotics” (Wyeth Holdings Corporation, priority 2001, dated 2005)

Legend:
Escherichia coli = experiment: in vitro antibacterial evaluation, MIC by broth dilution; assay type: cell-based; details: 18 hours at 35° C.
Staphylococcus sp. = experiment: as above; assay type: cell-based; details: broth dilution, 18 hours at 35° C.
Summary of the method: (§1)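 Broth dilution per NCCLS standard M7-A2 in Muller-Hinton II […], with an inoculum of 5×10^5 CFU/mL and antibiotic spanning 64-0.06 μg/mL. The MIC is the lowest concentration that inhibits growth of the organism.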

Enterococcus sp. = experiment: as above; assay type: cell-based; details: broth dilution, 18 hours at 35° C.
Summary of the method: as §1

Streptococcus sp. = experiment: as above; assay type: cell-based; details: broth dilution, 18 hours at 35° C.
Summary of the method: as §1

[1] = anatomic pathology (histopathology of heart and kidney) in mice; assay type: in vivo; details: CD-1 mice, 20 mg/kg intravenously daily for 9 days, necropsy day 10, microscopic histopathology
Protocol: Samples of tissues from necropsied mice were formalin-fixed, paraffin-embedded, sectioned, stained with hematoxylin and eosin, and examined microscopically. Histopathologic findings were recorded. These findings were subjectively graded on a scale corresponding to slight, mild, moderate, marked and severe as compared to untreated controls.

[2] = clinical pathology (serum clinical chemistry) in mice; assay type: in vivo; details: CD-1 mice, 20 mg/kg intravenously daily for 9 days, sera day 10
Protocol: 20-day-old CD-1 mice were divided into a vehicle control group (5 mice) and a treatment group (5 mice). Samples of glycopeptide antibiotics were administered at 20 mg/kg intravenously daily for 9 days.

[3] = test system: Staphylococcus aureus-SMITH (GC 4543); experiment: acute lethal infection in mice; assay type: in vivo; details: acute lethal infection, female CD-1 mice, intraperitoneal challenge, intravenous 30 min. after infection, 7 day survival
Summary of the method: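 ED50 from 7 day survival ratios pooled over 3 separate tests. Female CD-1 mice, 20+/−2 gm, ip bacterial challenge (trypticase soy broth or hog gastric mucin) lethal to untreated controls in 24-48 hr; iv dosing 30 min after infection in saline or 5% dextrose, n=5/dose.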

COc1ccc2cc(COCC3OC(OC4C(CO)OC(Oc5ccc(CC6NC(=O)C(C(C)c7ccccc7)NC(=O)CNC(=O)C(CO)NC(=O)C(C(O)C7CNC(=N)N7C7OC(CO)C(O)C(O)C7O)NC(=O)C(C(O)C7CNC(=N)N7)NC6=O)cc5)C(O)C4O)C(O)C(O)C3O)ccc2c1 (stereo not drawn) [Example 230, Cyclo[glycyl-β-methylphenylalanyl-O-[4-O-[6-O-[(6-methoxy-2-naphthyl)methyl]hexopyranosyl]hexopyranosyl]tyrosyl-3-(2-iminoimidazolidin-4-yl)seryl-3-(3-hexopyranosyl-2-iminoimidazolidin-4-yl)serylseryl]]
0: Anatomical Pathology (Day 10), Heart [1]
+179%: Clinical Chemistry (Day 10) % of Control, BUN [2]
+124%: Clinical Chemistry (Day 10) % of Control, Creatinine [2]
2 mg/L: MIC Coagulase Negative Staphylococcus (GC 4551) (Staphylococcus sp.) | MIC Staphylococcus aureus (ATCC 29213) (Staphylococcus sp.) | MIC Staphylococcus aureus (GC 1131) (Staphylococcus sp.) | MIC Staphylococcus aureus (GC 3051) (Staphylococcus sp.) | MIC Staphylococcus aureus (GC 3053) (Staphylococcus sp.) | MIC Staphylococcus aureus (GC 4542) (Staphylococcus sp.) | MIC Staphylococcus aureus (GC 4544) (Staphylococcus sp.) | MIC Staphylococcus aureus (ATCC 29213) (Staphylococcus sp.; strain ATCC 29213) | MIC Staphylococcus aureus (GC 1131) (Staphylococcus sp.; strain GC 1131) | MIC Staphylococcus aureus (GC 3051) (Staphylococcus sp.; strain GC 3051) | MIC Staphylococcus aureus (GC 3053) (Staphylococcus sp.; strain GC 3053) | MIC Staphylococcus aureus (GC 4542) (Staphylococcus sp.; strain GC 4542) | MIC Staphylococcus aureus (GC 4544) (Staphylococcus sp.; strain GC 4544) | MIC Coagulase Negative Staphylococcus (GC 4551) (Staphylococcus sp.; strain GC 4551) | MIC Enterococcus faecium (GC 4557) (Enterococcus sp.) | MIC Enterococcus faecium (GC 4557) (Enterococcus sp.; inoculum 5×10^5 CFU/mL, strain GC 4557)
8 mg/L: MIC Enterococcus avium (GC 4558) (Enterococcus sp.) | MIC Enterococcus faecalis (ATCC 29212) (Enterococcus sp.) | MIC Enterococcus faecalis (GC 2242) (Enterococcus sp.) | MIC Enterococcus faecalis (GC 3059) (Enterococcus sp.) | MIC Enterococcus faecalis (GC 4552) (Enterococcus sp.) | MIC Enterococcus faecalis (GC 4553) (Enterococcus sp.) | MIC Enterococcus faecalis (GC 4554) (Enterococcus sp.) | MIC Enterococcus faecium (GC 2243) (Enterococcus sp.) | MIC Enterococcus faecium (GC 4556) (Enterococcus sp.) | MIC Enterococcus faecalis (ATCC 29212) (Enterococcus sp.; inoculum 5×10^5 CFU/mL, strain ATCC 29212) | MIC Enterococcus faecalis (GC 2242) (Enterococcus sp.; inoculum 5×10^5 CFU/mL, strain GC 2242) | MIC Enterococcus faecium (GC 2243) (Enterococcus sp.; inoculum 5×10^5 CFU/mL, strain GC 2243) | MIC Enterococcus faecalis (GC 3059) (Enterococcus sp.; inoculum 5×10^5 CFU/mL, strain GC 3059) | MIC Enterococcus faecalis (GC 4552) (Enterococcus sp.; inoculum 5×10^5 CFU/mL, strain GC 4552) | MIC Enterococcus faecalis (GC 4553) (Enterococcus sp.; inoculum 5×10^5 CFU/mL, strain GC 4553) | MIC Enterococcus faecalis (GC 4554) (Enterococcus sp.; inoculum 5×10^5 CFU/mL, strain GC 4554) | MIC Enterococcus faecium (GC 4556) (Enterococcus sp.; inoculum 5×10^5 CFU/mL, strain GC 4556) | MIC Enterococcus avium (GC 4558) (Enterococcus sp.; inoculum 5×10^5 CFU/mL, strain GC 4558)
64 mg/L: MIC Escherichia coli (ATCC 25922) (Escherichia coli)
0.12 mg/L: MIC Streptococcus pneumoniae (ATCC 6301) (Streptococcus sp.) | MIC Streptococcus pneumoniae (GC 4565) (Streptococcus sp.) | MIC Streptococcus pneumoniae (ATCC 6301) (Streptococcus sp.; inoculum 5×10^5 CFU/mL, strain ATCC 6301) | MIC Streptococcus pneumoniae (GC 4565) (Streptococcus sp.; inoculum 5×10^5 CFU/mL, strain GC 4565)
4 mg/L: MIC Enterococcus faecalis (GC 2691) (Enterococcus sp.) | MIC Enterococcus faecalis (GC 6189) (Enterococcus sp.) | MIC Enterococcus faecalis (GC 2691) (Enterococcus sp.; inoculum 5×10^5 CFU/mL, strain GC 2691) | MIC Enterococcus faecalis (GC 6189) (Enterococcus sp.; inoculum 5×10^5 CFU/mL, strain GC 6189)
>64 mg/L: MIC Escherichia coli (GC 4559) (Escherichia coli)
0.5 mg/L: MIC Coagulase Negative Staphylococcus (GC 4548) (Staphylococcus sp.) | MIC Coagulase Negative Staphylococcus (GC 6257) (Staphylococcus sp.) | MIC Coagulase Negative Staphylococcus (GC 4548) (Staphylococcus sp.; strain GC 4548) | MIC Coagulase Negative Staphylococcus (GC 6257) (Staphylococcus sp.; strain GC 6257) | MIC Streptococcus agalactiae (GC 4564) (Streptococcus sp.) | MIC Streptococcus agalactiae (GC 4564) (Streptococcus sp.; inoculum 5×10^5 CFU/mL, strain GC 4564)
1 mg/L: MIC Escherichia coli (GC 4560) (Escherichia coli) | MIC Coagulase Negative Staphylococcus (GC 4547) (Staphylococcus sp.) | MIC Coagulase Negative Staphylococcus (GC 4549) (Staphylococcus sp.) | MIC Staphylococcus aureus (GC 4541) (Staphylococcus sp.) | MIC Staphylococcus aureus (GC 4545) (Staphylococcus sp.) | MIC Staphylococcus aureus-SMITH (GC 4543) (Staphylococcus sp.) | MIC Staphylococcus haemolyticus (GC 4546) (Staphylococcus sp.) | MIC Staphylococcus aureus (GC 4541) (Staphylococcus sp.; strain GC 4541) | MIC Staphylococcus aureus-SMITH (GC 4543) (Staphylococcus sp.; strain GC 4543) | MIC Staphylococcus aureus (GC 4545) (Staphylococcus sp.; strain GC 4545) | MIC Staphylococcus haemolyticus (GC 4546) (Staphylococcus sp.; strain GC 4546) | MIC Coagulase Negative Staphylococcus (GC 4547) (Staphylococcus sp.; strain GC 4547) | MIC Coagulase Negative Staphylococcus (GC 4549) (Staphylococcus sp.; strain GC 4549)
0.12 mg/kg: median effective dose (ED50), Staphylococcus aureus-SMITH (GC 4543) [3]
+++: Anatomical Pathology (Day 10), Kidney [1]
<0.06 mg/L: MIC Streptococcus pneumoniae (GC 1894) (Streptococcus sp.) | MIC Streptococcus pneumoniae (GC 1894) (Streptococcus sp.; inoculum 5×10^5 CFU/mL, strain GC 1894)
0.25 mg/L: MIC Streptococcus pyogenes (GC 4563) (Streptococcus sp.) | MIC Streptococcus pyogenes (GC 4563) (Streptococcus sp.; inoculum 5×10^5 CFU/mL, strain GC 4563)
